“Also recorded” adds a separate entry of the source.
How the values were obtained:
human M5 mAChR = target: T1, human M5 mAChR (Homo sapiens, UniProt P08912); test: [3H]NMS binding, CHO cell membranes expressing human M5 mAChR
T1 sequence (P08912 1-532): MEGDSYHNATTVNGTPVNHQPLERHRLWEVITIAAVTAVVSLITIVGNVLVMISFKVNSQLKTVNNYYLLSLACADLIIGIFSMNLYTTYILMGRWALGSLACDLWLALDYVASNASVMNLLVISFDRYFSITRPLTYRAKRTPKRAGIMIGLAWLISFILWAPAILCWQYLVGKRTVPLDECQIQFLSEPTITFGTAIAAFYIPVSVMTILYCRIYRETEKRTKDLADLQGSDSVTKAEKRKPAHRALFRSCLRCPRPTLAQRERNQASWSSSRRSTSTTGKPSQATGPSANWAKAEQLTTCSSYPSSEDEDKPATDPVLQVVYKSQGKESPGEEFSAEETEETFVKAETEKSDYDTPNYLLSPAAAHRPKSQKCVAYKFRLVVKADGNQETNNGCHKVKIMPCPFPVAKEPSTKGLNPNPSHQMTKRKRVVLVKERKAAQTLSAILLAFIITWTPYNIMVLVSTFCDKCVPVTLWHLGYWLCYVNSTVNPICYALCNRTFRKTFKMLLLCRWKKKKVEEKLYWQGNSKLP

mAChRs = test: [3H]DA release assay, superfused rat striatal slices
M3 mAChR = conditions: ref [36],[43]; cited from earlier work
human M3 mAChR = human M3 mAChR (Homo sapiens, UniProt P20309); conditions: [3H]NMS binding assay; ref [36],[43]; cited from earlier work
Chain of human M3 mAChR (P20309 whole entry): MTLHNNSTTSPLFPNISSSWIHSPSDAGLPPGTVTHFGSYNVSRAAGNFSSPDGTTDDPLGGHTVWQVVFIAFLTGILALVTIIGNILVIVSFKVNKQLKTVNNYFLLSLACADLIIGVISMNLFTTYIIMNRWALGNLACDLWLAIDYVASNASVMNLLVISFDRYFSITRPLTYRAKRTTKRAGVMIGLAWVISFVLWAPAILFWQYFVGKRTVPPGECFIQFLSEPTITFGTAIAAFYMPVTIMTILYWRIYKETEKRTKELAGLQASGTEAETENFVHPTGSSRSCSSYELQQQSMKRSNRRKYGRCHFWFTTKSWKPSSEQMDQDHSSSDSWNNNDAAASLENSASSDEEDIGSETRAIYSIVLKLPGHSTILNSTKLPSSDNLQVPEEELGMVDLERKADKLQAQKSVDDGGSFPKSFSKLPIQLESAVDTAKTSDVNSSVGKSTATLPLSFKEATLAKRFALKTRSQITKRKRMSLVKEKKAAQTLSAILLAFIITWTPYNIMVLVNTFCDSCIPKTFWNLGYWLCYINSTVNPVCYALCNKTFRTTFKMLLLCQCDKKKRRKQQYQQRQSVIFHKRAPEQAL

| Compound | effect on carbachol-induced contraction of the isolated rat tracheal muscle (M3 mAChR) | selectivity for M3 over M2 (human M3 mAChR) | also measured |
| --- | --- | --- | --- |
| O=C(OC1CN2CCC1CC2)N(CCc1ccc(F)cc1)c1ccccc1 (racemic) [Compound 3c, (±)-quinuclidin-3-yl-(4-fluorophenethyl)(phenyl)carbamate] |  |  | fold higher affinity for M5 mAChRs compared to compound 1 (human M5 mAChR): 1200 fold; effect on oxotremorine-evoked [3H]DA overflow (mAChRs; oxotremorine 100 μM, 3c 0.1, 1, 10 μM, significant at 10 μM): augmented oxotremorine-evoked [^3H]DA overflow; also recorded: augmented release evoked by oxotremorine; also recorded: augmented oxotremorine-evoked DA release |
| O=C(NCC1CCNCC1)[C@H]1CCCN1C(=O)[C@@H]1C[C@@H](O)CN1C(=O)CC(c1ccc(F)cc1)(c1ccc(F)cc1)c1ccc(F)cc1 [compound 14a, (2R)-1-((2S,4R)-4-hydroxy-1-[3,3,3-tris(4-fluoro-phenyl)propanoyl]-pyrrolidine-2-yl)carbonyl-N-(4-piperidinyl-methyl)pyrrolidine-2-carboxamide] | inhibition | 1600 fold |  |
| Nc1cccc(CN2CCC(NC(=O)[C@](O)(c3ccccc3)[C@@H]3CCC(F)(F)C3)CC2)n1 [compound A, (2R)-N-[1-(6-aminopyridin-2-ylmethyl)piperidin-4-yl]-2-[(1R)-3,3-difluorocyclopentyl]-2-hydroxy-2-phenylacetamide] | inhibition | 193 fold |  |
| O=C1CCCN1CC#CCN1CCCC1 [oxotremorine] |  |  | effect on [3H]DA overflow compared to control (mAChRs; oxotremorine 100 μM): increased [^3H]DA overflow |
| CN1[C@@H]2C[C@H](OC(=O)[C@H](CO)c3ccccc3)C[C@H]1[C@@H]1O[C@@H]12 [scopolamine] |  |  | effect on 3c-evoked [3H]DA overflow (mAChRs; scopolamine 10 μM, 3c 10 μM): inhibited |
